Measured values as given in US4618613A, “Preventive and healing composition for diseases due to lipoxygenase metabolic products” (Kyowa Hakko Kogyo Company, Ltd., priority 1983, dated 1986).
Where a name gives a salt, the structure may show the parent alone. Read-outs that look alike come from different tables or passages of the source.

Experiments:
SRS-A production = experiment: suppressing action upon production of SRS-A (lung pieces of actively sensitized guinea pigs, EWA challenge); format: cell-based, guinea pig; conditions: for inhibition at 8.3 µg/mL: 8.3 μg/ml; for suppression of the production of SRS-A (in words): Table 4, 8.3 μg/ml
Experimental: An inhibiting action of 2-n-heptyl-4-hydroxyquinoline-N-oxide upon SRS-A production was determined according to the following procedure:
According to Watanabe-Kohno and Parker procedure (J. Immunol., 125, 946 (1980)), 20 mg of egg white albumin (hereinafter abbreviated as EWA), was dissolved in 10 ml of physiological saline solution, and the resulting solution was added to an equal volume of Freund's complete adjuvant to prepare an emulsion. Then, 1 ml of the emulsion was administered subcutaneously in the plantar surface of the hind paws of guinea pigs to make the animals actively sensitized. Three to five weeks thereafter, the guinea pigs were sacrified by exsanguination from the carotid artery, and the Tyrode's solution was perfused through right cardiac ventricle to wash lungs and remove blood. Then, the lungs were isolated and cut to pieces of about 2 mm size in the chilled Tyrode's solution with scissors, filtered through 2 sheets of gauze. Then, 400 mg of the fragments were distributed into individual test tubes containing 5 ml of the Tyrode's solution. The lung pieces were preincubated at 37° C. for 10 minutes, 0.5 ml of a test solution at various concentrations was added thereto, and the incubation was continued for 10 minutes at 37° C. Then, 0.5 ml of EWA (20 mg/ml) was added thereto, and the mixture was further incubated for 15 minutes. The reaction was discontinued by ice-cooling the mixture, and then the mixture was filtered through a sheet of gauze.
(§1) The amount of SRS-A in the filtrate was bioassayed using guinea pig ileum according to the Magnus procedure. That is, the ileums were suspended in 10 ml of organ bath filled with the Tyrode's solution (31 ±1° C., aerated with 95% O2 +5% CO2 gas mixture), and their movements were recorded on a recorder with a pen (Hitachi: QPD54) through an isotonic transducer (Nihon Koden: JD112S). After the ileum contraction reaction by 10^-7 M histamine was stabilized, 1 ml of the filtrate was added to the organ bath in the presence of 5 x 10^-7 M atropine and 10^-6 M tripelennamine to cause the ileum contraction reaction. It was known that the ileum contraction reaction by SRS-A was increased by repetitive applications and, therefore, after the reaction by at least 5 applications of the SRS-A prepared in advance became constant, control filtrate and a filtrate containing a test solution were used.
Suppressing actions of 2-n-propyl-4-hydroxyquinoline-N-oxide and 2-n-undecyl-4-hydroxyquinoline-N-oxide upon production of SRS-A were determined in the same manner as in Test Example 3.

5-lipoxygenase = biological target: T1, 5-lipoxygenase (Rattus norvegicus, UniProt P12527); experiment: inhibiting action upon leukocyte 5-lipoxygenase (RBL-1 cells as enzyme source); format: biochemical
T1 construct: leukemic basophilic granulocyte cells of rats (RBL-1, ATCC No. CRL 1378) were used as a 5-lipoxygenase enzyme source; host or cells: RBL-1 (rat basophilic leukemia cells)
T1 sequence (P12527 1-673): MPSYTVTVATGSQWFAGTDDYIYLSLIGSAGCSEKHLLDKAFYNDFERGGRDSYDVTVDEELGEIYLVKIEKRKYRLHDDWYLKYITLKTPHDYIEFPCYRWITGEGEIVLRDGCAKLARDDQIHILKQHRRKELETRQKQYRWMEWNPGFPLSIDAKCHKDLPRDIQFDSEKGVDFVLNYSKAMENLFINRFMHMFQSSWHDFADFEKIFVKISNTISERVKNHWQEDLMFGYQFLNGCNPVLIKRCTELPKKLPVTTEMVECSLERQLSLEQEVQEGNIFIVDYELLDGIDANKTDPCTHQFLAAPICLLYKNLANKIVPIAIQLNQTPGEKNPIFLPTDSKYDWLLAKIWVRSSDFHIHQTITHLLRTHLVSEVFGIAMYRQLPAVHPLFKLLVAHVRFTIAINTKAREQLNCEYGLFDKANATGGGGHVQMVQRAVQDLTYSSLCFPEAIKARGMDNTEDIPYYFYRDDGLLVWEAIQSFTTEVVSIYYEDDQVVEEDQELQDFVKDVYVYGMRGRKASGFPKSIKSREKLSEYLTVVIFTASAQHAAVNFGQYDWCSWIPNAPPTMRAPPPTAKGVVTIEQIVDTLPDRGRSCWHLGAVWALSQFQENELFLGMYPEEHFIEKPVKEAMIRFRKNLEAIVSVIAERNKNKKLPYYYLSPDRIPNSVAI
Experimental: (§2) An inhibiting action of 2-n-heptyl-4-hydroxyquinoline-N-oxide upon lipoxygenase was determined by in vitro test according to the following procesure:
(b) Procedure for determining the inhibiting action upon leukocyte 5-lipoxygenase:
Determination was carried out according to modified B. A. Jakschik, et al, procedure (Biochem. Biophys. Res. Commun. 95, 103 (1980)). That is, leukemic basophilic granulocyte cells of rats (RBL-1, ATCC No. CRL 1378) were used as a 5-lipoxygenase enzyme source. The cells and 2-n-heptyl-4-hydroxyquinoline-N-oxide were brought into contact with each other in a 0.07 M tris hydrochloric acid buffer solution in the presence of 0.7 mM calcium chloride at 37° C. for 5 minutes, and then 20 μM of [^14 C]-arachidonic acid was added thereto. The mixture was incubated at 37° C. for 5 minutes. The reaction product was extracted with ethyl acetate/methanol/0.2M citric acid (30/4/1), and then separated by thin layer chromatography (developing solvent: petroleum ether/ethyl ether/acetic acid: 50/50/1). Spots of 5-hydroxy-[…]-eicosatetraenoic acid in the product were scraped off and ^14 C was measured by a liquid scintillation counter.
(§3) Inhibiting actions of compounds in Table 2 upon lipoxygenase were determined in the same manner as in Test Example 1.

12-lipoxygenase = biological target: T2, 12-lipoxygenase (Bos taurus, UniProt F1MFA8); experiment: inhibiting action upon blood platelet 12-lipoxygenase; format: biochemical, bovine; conditions: for inhibition at 1000 µM: pH 7.4, with 1,000 μM of each compound, read-out: 12-lipoxygenase, inhibiting ratio
T2 construct: a preparation prepared from bovine blood platelets was used as an enzyme source; from tissue; host or cells: bovine blood platelets
T2 sequence (F1MFA8 1-663): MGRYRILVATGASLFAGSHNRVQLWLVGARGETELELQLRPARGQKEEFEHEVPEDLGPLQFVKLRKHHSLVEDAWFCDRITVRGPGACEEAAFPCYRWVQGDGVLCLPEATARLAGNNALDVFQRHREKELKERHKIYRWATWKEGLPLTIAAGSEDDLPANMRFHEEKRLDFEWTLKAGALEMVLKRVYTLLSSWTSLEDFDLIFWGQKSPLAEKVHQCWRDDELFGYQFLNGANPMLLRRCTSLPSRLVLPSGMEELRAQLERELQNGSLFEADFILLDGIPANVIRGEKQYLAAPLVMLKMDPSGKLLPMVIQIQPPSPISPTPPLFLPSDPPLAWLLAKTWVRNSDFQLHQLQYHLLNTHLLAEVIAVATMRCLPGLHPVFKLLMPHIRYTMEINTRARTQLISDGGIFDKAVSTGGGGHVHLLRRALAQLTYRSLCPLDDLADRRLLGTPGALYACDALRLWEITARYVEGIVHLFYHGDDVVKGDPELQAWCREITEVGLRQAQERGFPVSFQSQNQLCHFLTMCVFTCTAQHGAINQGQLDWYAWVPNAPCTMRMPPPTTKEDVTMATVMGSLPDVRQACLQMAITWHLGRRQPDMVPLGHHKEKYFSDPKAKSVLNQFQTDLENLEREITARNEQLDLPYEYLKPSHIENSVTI
Experimental: as §2
(a) Procedure for determining the inhibiting action upon blood platelet 12-lipoxygenase:
Determination was carried out according to D. H. Nugtern, et al, procedure (Biochem. Biophys. Acta, 380, 299 (1975)). That is, a preparation prepared from bovine blood platelets was used as an enzyme source. The blood platelet lipoxygenase preparation and 2-n-heptyl-4-hydroxyguinoline-N-oxide were brought into contact with each other in a 0.01M tris hydrochloric acid buffer solution (pH 7.4) at 30° C. for 5 minutes in advance, and then 35 μM of [^14 C]arachidonic acid was added thereto. The mixture was incubated at 30° C. for 10 minutes. The reaction product was extracted with ethyl acetate/methanol/0.2M citric acid (30/4/1), and then separated by thin layer chromatography (developing solvent system: ligroin/ethyl ether/acetic acid: (50/50/1). The spot of 12-hydroxy-5,8,10,14-eicosatetraenoic acid in the product was scraped off and ^14 C was measured by a liquid scintillation counter.
as §3

[1] = tested on: airway contraction reaction of passively sensitized guinea pigs; experiment: suppressing action upon anaphylactic airway contraction reaction of passively sensitized guinea pigs; format: in vivo, guinea pig; conditions: 10 mg/kg P.O. one hour before antigen EWA (1 mg/kg); 6 guinea pigs vs 18 control
Experimental: Suppressing action of 2-n-heptyl-4-hydroxyquinoline-N-oxide upon the airway contraction reaction of passively sensitized guinea pigs was determined according to the following procedure:
Anaphylactic airway contraction reaction of passively sensitized guinea pigs by antigen administration was determined according to modified Konzett and Rossler procedure (Arch. exp. Path. Pharmakol., 195, 71 (1940)). Anti-EWA guinea pig serum (1 ml/animal) was intraperitoneally administered into normal guinea pigs to make the animals passively sensitized, and 24 hours thereafter, a tracheal cannule was inserted and fixed to the guinea pig under urethane anesthesia. An artificial respirator and a bronchospasm transducer were connected to the cannule. After the spontaneous respiration was stopped by intravenous injection of 10 mg/kg of gallamine triethiodide, 1 mg/kg of EWA was injected into the jugular vein to cause anaphylactic airway contraction, and the volume of air overflow from the tracheal cannule sideway was recorded on a polygraph through the transducer. After the end of measurement, the trachea was completely blockaded. The state of complete blockade was regarded as a maximum contraction, and the results were given in percentage to the maximum contraction.

SRS-A = experiment: guinea pig ileum contraction reaction by SRS-A (Magnus procedure); conditions: 3×10^-7 M
Experimental: as §1

[2] = Cavia porcellus, read-out: Suppressing ratio, production of SRS-A
[3] = Table 2, same manner as Test Example 1

CCCc1cc(O)c2ccccc2[n+]1[O-] [2-n-propyl-4-hydroxyquinoline-N-oxide]
inhibition at 8.3 µg/mL (SRS-A production; [2]): 34.1%
suppression of the production of SRS-A (in words) (SRS-A production): suppress the production of SRS-A
IC50 (5-lipoxygenase; [3]): 110 µM
inhibition at 1000 µM (12-lipoxygenase; 10 min): 46.3%

CCCCCCCc1cc(O)c2ccccc2[n+]1[O-] [2-n-heptyl-4-hydroxyquinoline-N-oxide]
formation of SRS-A (in words) (SRS-A production; 4, 40, and 400 μg/ml): suppressed by application of 4, 40, and 400 μg/ml of the present compound in a dose dependent manner
inhibition at 4 µg/mL (SRS-A production; [2]): 26.2 ± 4.2%
inhibition at 40 µg/mL (SRS-A production; [2]): 60.1 ± 3.7%
inhibition at 400 µg/mL (SRS-A production; [2]): 84.3 ± 1.1%
intensity of SRS-A suppression compared with BW-755C (SRS-A production; in words, measured at the same time): obviously better than the suppressing action of BW-755C
IC50 (5-lipoxygenase): 0.15 µM
inhibiting action upon 5-lipoxygenase compared with BW-755C (5-lipoxygenase; in words): much better in the present compound
suppression of airway contraction reaction (increase in air overflow) [1]: significantly suppressed
IC50 (12-lipoxygenase): 30 µM
inhibiting action upon 12-lipoxygenase compared with BW-755C (12-lipoxygenase; in words): almost equal to that of known compound

CCCc1c(OCC(O)COc2ccc3c(=O)cc(C(=O)O)oc3c2CCC)ccc(C(C)=O)c1O (centres unmarked) [FPL-55712]
suppression of ileum contraction reaction by SRS-A (SRS-A): almost completely suppressed

NC1=NN(c2cccc(C(F)(F)F)c2)CC1 [BW-755C, 3-amino-1-(3-trifluoromethylphenyl)-2-pyrazoline hydrochloride, reference compound]
inhibition at 40 µg/mL (SRS-A production; Cavia porcellus, 40 μg/ml, read-out: Suppressing ratio, production of SRS-A): 23.8 ± 8.8%
IC50 (12-lipoxygenase; bovine blood platelet preparation, 35 μM [14C]arachidonic acid, pH 7.4, 30° C., 10 min, read-out: IC50, 12-lipoxygenase): 25 µM

CCCCCCCCCCCc1cc(O)c2ccccc2[n+]1[O-] [2-n-undecyl-4-hydroxyquinoline-N-oxide]
inhibition at 8.3 µg/mL (SRS-A production; [2]): 17.5%
suppression of the production of SRS-A (in words) (SRS-A production): suppress the production of SRS-A
IC50 (5-lipoxygenase; [3]): 0.2 µM
inhibition at 1000 µM (12-lipoxygenase; 10 min): 55.7%

CCCCCCCCCCCCCCCc1cc(O)c2ccccc2[n+]1[O-] [2-n-pentadecyl-4-hydro-xy-quinoline-N--oxide]
IC50 (5-lipoxygenase; [3]): 1 µM
inhibition at 1000 µM (12-lipoxygenase; 10 min): 56%
